Results taken from patent publication US10808008B2, “Aromatic-cationic peptides and uses of same” (Cornell University, priority 2012, dated 2020).
“Also recorded” adds a separate entry of the source.

Assays:
[1] = Fluorescence spectroscopy of labelled peptides with cardiolipin; format: binding
Text: The peptides 2′,6′-Dmt-D-Arg-[…] (SS-19) and 2′,6′-Dmt-D-Arg-Phe-Lys-Ald-NH2 (SS-37) cationic peptides carry net positive charge at neutral pH. They are expected to associate with anionic phospholipid cardiolipin based on electrostatic interaction. The interaction of small peptides with lipid membranes can been studied using fluorescence spectroscopy (Surewicz and Epand, 1984). […] Polarity-sensitive fluorescent probes were incorporated into the peptides and fluorescence spectroscopy was used to determine if SS-19, SS-37 and SS-36 interact with CL.
The peptide 2′,6′-Dmt-D-Arg-Phe-(atn)Dap-NH2 (SS-19) contains anthraniloyl incorporated into diaminopropionic acid. Anthraniloyl derivatives fluoresce in the 410-420 nm range when excited at 320-330 nm (Hiratsuka T, 1983). The quantum yield of anthraniloyl derivatives is strongly dependent on the local environment, and can increase 5-fold going from water to 80% ethanol, together with a blue shift in the emission maxima (λ max) of <10 nm (Hiratsuka T, 1983). Fluorescence emission spectrum of SS-19 (1 μM) alone, and in the presence of increasing concentrations of CL (5 to 50 μg/ml), was monitored following excitation at 320 nm using Hitachi F-4500 fluorescence spectrophotometer.
The peptide 2′,6′-Dmt-D-Arg-Phe-Lys-Ald-NH2 (SS-37) contains an additional amino acid, aladan (Ald), which has been reported to be particularly sensitive to the polarity of its environment and it has been used to probe the electrostatic character of proteins (Cohen et al., 2002). When excited at 350 nm, λmax shifts from 542 nm in water to 409 nm in heptane, accompanied by a significant increase in quantal yield (Cohen et al., 2001). Fluorescence emission spectrum of SS-37 (1 μM) alone, and in the presence of increasing concentrations of CL, was monitored following excitation at 350 nm. Addition of CL (5 to 50 μg/ml) led to a 3-fold increase in quantal yield of SS-37 as well as a clear blue shift in λ max, from 525 nm without CL to 500 nm with 50 μg/ml CL (FIG. 11B).
The peptide 2′,6′-Dmt-D-Arg-Ald-Lys-NH2 (SS-36) contains Ald in place Phe^3 in SS-02. Fluorescence emission spectrum of SS-36 (1 μM) alone, and in the presence of increasing concentrations of CL, was monitored following excitation at 350 nm. SS-36 was the most sensitive to the addition of CL, with dramatic increase in quantal yield and blue shift observed with much lower added amounts of CL (1.25 to 5 μg/ml). The λmax shifted from 525 nm without CL to 500 nm with as little as 1.25 μg/ml CL, and quantal yield increased by more than 100-fold with the addition of 5 μg/ml of CL (FIG. 11C). […] Accordingly, aromatic-cationic peptides of the present disclosure are useful for the prevention or treatment of diseases or disorders characterized by dysregulation of cardiolipin.
Changes in the emission intensity of the [atn]SS-02 and the [ald]SS-02 were measured using a Hitachi F-4500 fluorescence spectrophotometer. The different solvents used to dissolve the various phospholipids (chloroform, methanol and ethanol) had negligible effect on the fluorescence spectrum of [atn]SS-02 and [ald]SS-02. All experiments were done in low ionic solution (deionized water) to optimize electrostatic interactions of peptides with phospholipids.
Increasing concentrations of cardiolipin (5, 10, 25, and 50 μg/mL) were added to 1 μM [atn]SS-02, and the emission intensity between 350 nm and 500 nm was measured.

[2] = molecular target: T1, cytochrome c and cardiolipin (CL) (Equus caballus, UniProt P00004); assay: Fluorescence quenching by cytochrome c in the presence of cardiolipin; format: binding, horse
T1 construct: from tissue; host or cells: horse heart
Procedure: Fluorescence emission of SS-19 (10 μM) was monitored in real time (Ex/Em=320 nm/420 nm) using Hitachi F-4500 fluorescence spectrophotometer. […] CL may potentiate the interaction between SS-19 and cytochrome c by serving as an anionic platform for the two cationic molecules.
The quenching by cytochrome c was not displaced by sequential additions of bovine serum albumin (500 μg/ml) (FIG. 13C, A+arrows).
SS-36 also contains the polarity-sensitive fluorescent amino acid aladan. […] Accordingly, aromatic-cationic peptides of the present disclosure are useful for the prevention or treatment of diseases or disorders characterized by dysregulation of cardiolipin and/or cytochrome c, and/or diseases or disorders characterized by dysregulation of the cardiolipin/cytochrome c interaction.
(§1) Interaction of SS peptides with horse heart cytochrome c in the absence or presence of free cardiolipin or cardiolipin/POPC (1:1) liposomes (prepared as described in Example 22) was examined by fluorescence quenching of [atn]SS-02 (λex/λem=320/420 nm) and [ald]SS-02 (λex/λem=360/510 nm) upon addition of cytochrome c (using a Hitachi F-4500 fluorescence spectrophotometer). The solvents used to dissolve cardiolipin and POPC had negligible effect on cytochrome c-dependent quenching of these peptides. All experiments were done in low ionic solution (deionized water) or 20 mM Hepes pH 7.4.

[3] = molecular target: cytochrome c (Equus caballus, UniProt P00004); assay: Fluorescence quenching of labelled peptides by cytochrome c; format: binding, horse; design: from tissue; host or cells: horse heart; conditions: for change in λmax on quenching by cytochrome c / quenching of fluorescence by cytochrome c: Example 22; for quenching of fluorescence by cytochrome c: additions of cytochrome c (2 μM)
Procedure: Maximal fluorescence emission of SS-19 was monitored at 420 nm following excitation at 320 nm using Hitachi F-4500 fluorescence spectrophotometer.
The quenching by cytochrome c was not displaced by sequential additions of bovine serum albumin (FIG. 12C, A+arrows) (500 μg/ml). […] Accordingly, aromatic-cationic peptides of the present disclosure are useful for the prevention or treatment of diseases or disorders characterized by dysregulation of cytochrome c.
Fluorescence emission of SS-19 (10 μM) was monitored in real time (Ex/Em=320 nm/420 nm) using Hitachi F-4500 fluorescence spectrophotometer.
as §1

T1 sequence (P00004 2-105 limits assumed): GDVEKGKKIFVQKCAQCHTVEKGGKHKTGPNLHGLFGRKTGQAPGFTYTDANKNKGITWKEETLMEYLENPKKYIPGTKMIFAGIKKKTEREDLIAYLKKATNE
cytochrome c, sequence (P00004 2-105 limits assumed): as above

Substance	increase in quantal yield on addition of CL ([1]; 1 μM peptide, 5 μg/ml CL, excitation 350 nm)	affinity compared among POPS, POPA, DPPG and cardiolipin ([1]; 1 μM peptide, 10 μg/mL phospholipid)	peptide fluorescence on addition of CL ([1]; CL 2.5 μg/ml)	emission maximum with cardiolipin after addition of cytochrome c [2] [nm]	emission maximum with cardiolipin before addition of cytochrome c [2] [nm]	quenching of fluorescence by cytochrome c in the presence of CL ([2]; CL 2.5 μg/ml, cytochrome c 2 μM)	change in λmax on quenching by cytochrome c [3]	quenching of fluorescence by cytochrome c [3]	shift in λmax on addition of CL ([1]; 1 μM peptide, CL 5-50 μg/ml, excitation 320 nm)	increase in quantal yield on addition of CL ([1]; 1 μM peptide, CL 5 to 50 μg/ml) [fold]	emission intensity on addition of cardiolipin ([1]; 1 μM peptide, deionized water (Example 21))	peptide fluorescence on addition of CL ([1]; 10 μM peptide, CL 50 μg/ml, Ex/Em 320/420 nm)	quenching of the fluorescent signal ([2]; 2 μM cytochrome c, 1 μM peptide, 10 μg/mL cardiolipin, 420 nm) [%]	extent of quenching by cytochrome c with CL compared to without CL ([2]; 10 μM peptide, CL 50 μg/ml, cytochrome c 2 μM)	effect of cardiolipin on interaction between cytochrome c and peptide ([2]; free cardiolipin or cardiolipin liposomes)	dependence of interaction on amount of cytochrome c [3]	quenching of the fluorescent signal ([3]; 2 μM cytochrome c, 1 μM peptide, absence of cardiolipin, 420 nm) [%]	quenching of peptide fluorescence by cytochrome c ([3]; 10 μM peptide, 2 μM cytochrome c, Ex/Em 320/420 nm)	displacement of cytochrome c quenching by bovine serum albumin ([3]; BSA 500 μg/ml)
2′,6′-Dmt-D-Arg-Ald-Lys-NH2 [SS-36]	more than 100 fold	Cardiolipin shows the highest affinity	increase in SS-36 fluorescence	450	510	dramatic quenching	no change in λmax	concentration-dependent quenching	–	–	–	–	–	–	–	–	–	–	–
2′,6′-Dmt-D-Arg-Phe-(atn)Dap-NH2 [SS-19]	–	–	–	–	–	–	no change in λmax	concentration-dependent quenching	no significant shift in λmax	2	increased the emission intensity of [atn]SS-02 in a concentration-dependent manner	increase in SS-19 fluorescence	~50	larger extent of quenching	potentiated by either free cardiolipin or cardiolipin liposomes in a dose-dependent manner	linearly dependent on the amount of cytochrome c added	~20	similarly quenched by sequential addition of 2 μM cytochrome c; also recorded: immediate quenching of the fluorescence signal	not displaced
